Data from patent US4443436A, “C-20-Modified macrolide derivatives of the macrolide antibiotics tylosin, desmycosin, macrocin, and lactenocin” (Eli Lilly and Company, priority 1982, dated 1984).
Values after ≈ are worked out from the molar mass of the structure shown. Like-named read-outs stand apart in the source and are kept apart here.

Key:
[1] = test system: Staphylococcus aureus X1.1; assay: MIC, standard agar-dilution assay, Staphylococcus aureus X1.1; type: cell-based
[2] = test system: Staphylococcus aureus V41; assay: MIC, standard agar-dilution assay, Staphylococcus aureus V41; type: cell-based
[3] = test system: Staphylococcus aureus X400; assay: MIC, standard agar-dilution assay, Staphylococcus aureus X400; type: cell-based
[4] = test system: Staphylococcus aureus S13E; assay: MIC, standard agar-dilution assay, Staphylococcus aureus S13E; type: cell-based; conditions: Staphylococcus aureus, S13E
[5] = test system: Staphylococcus epidermidis EPI1; assay: MIC, standard agar-dilution assay, Staphylococcus epidermidis EPI1; type: cell-based; conditions: Staphylococcus epidermidis, EPI1
[6] = test system: Staphylococcus epidermidis EPI2; assay: MIC, standard agar-dilution assay, Staphylococcus epidermidis EPI2; type: cell-based; conditions: Staphylococcus epidermidis EPI2; agar dilution; read-out: MIC
[7] = test system: Streptococcus pyogenes C203; assay: MIC, standard agar-dilution assay, Streptococcus pyogenes C203; type: cell-based
[8] = test system: Streptococcus pneumoniae Park I; assay: microbe, parasite or virus in culture; type: cell-based; conditions: Streptococcus pneumoniae
[9] = test system: Streptococcus Group D X66; assay: MIC, standard agar-dilution assay, Streptococcus Group D X66; type: cell-based
[10] = test system: Haemophilus influenzae Holt; assay: MIC, standard agar-dilution assay, Haemophilus influenzae Holt; type: cell-based
[11] = test system: Haemophilus influenzae R252; assay: MIC, standard agar-dilution assay, Haemophilus influenzae R252; type: cell-based
Staphylococcus aureus = assay: MIC, broth-dilution microtiter test, Staphylococcus aureus; type: cell-based; conditions: broth-dilution microtiter, read-out: MIC
From the text: (§1) The MIC's in Table X were obtained using conventional broth-dilution microtiter tests.

Streptococcus bovis 80 = assay: MIC, broth-dilution microtiter test, Streptococcus bovis 80; type: cell-based; conditions: Streptococcus equinus
From the text: as §1

[12] = test system: Pasteurella multocida 17E; assay: MIC, broth-dilution microtiter test, Pasteurella multocida 17E; type: cell-based
From the text: as §1

[13] = test system: Pasteurella multocida 60A; assay: MIC, broth-dilution microtiter test, Pasteurella multocida 60A; type: cell-based
From the text: as §1

[14] = test system: Pasteurella hemolytica 22C; assay: MIC, broth-dilution microtiter test, Pasteurella hemolytica 22C; type: cell-based
From the text: as §1

Mycoplasma gallisepticum = assay: MIC, broth-dilution microtiter test, Mycoplasma gallisepticum; type: cell-based; conditions: Mycoplasmoides gallisepticum; Mycoplasma gallisepticum; broth-dilution microtiter; read-out: MIC
From the text: as §1

Mycoplasma synoviae = assay: MIC, broth-dilution microtiter test, Mycoplasma synoviae; type: cell-based; conditions: Mycoplasmopsis synoviae; Mycoplasma synoviae; broth-dilution microtiter; read-out: MIC
From the text: as §1

Mycoplasma hyorhinis = assay: MIC, broth-dilution microtiter test, Mycoplasma hyorhinis; type: cell-based; conditions: Mycoplasma
From the text: as §1

Mycoplasma hyopneumoniae = assay: MIC, broth-dilution microtiter test, Mycoplasma hyopneumoniae; type: cell-based; conditions: Mesomycoplasma hyopneumoniae; Mycoplasma hyopneumoniae; broth-dilution microtiter; read-out: MIC
From the text: as §1

[15] = test system: Streptococcus pyogenes C203; assay: In vivo protection of mice experimentally infected with S. pyogenes C203; conditions: Streptococcus pyogenes, mice, doses given 1 and 4 hours post-infection
Description: The C-20 modified derivatives of this invention have shown in vivo antimicrobial activity against experimentally-induced infections in laboratory animals. When two doses of test compound were administered to mice experimentally infected with S. pyogenes C203, the activity observed was measured as an ED50 value [effective dose in mg/kg to protect 50% of the test animals: see Warren Wick, et al., J. Bacteriol. 81, 233-235 (1961)].

Pasteurella multocida [16] = assay: Subcutaneous treatment of Pasteurella multocida-infected chicks; type: in vivo, one-day-old chicks
Description: Many of the C-20 modified derivatives of this invention have also shown in vivo antibacterial activity against infections induced by gram-negative bacteria. Tables XII and XIII summarize the results of tests in which illustrative compounds were evaluated against Pasteurella infection in one-day-old chicks. The compounds were administered parenterally or orally after challenge of the chicks with Pasteurella multocida (0.1 ml of a 10^-4 dilution of a twenty-hour tryptose broth culture of an avian P. multocida given subcutaneously). In these tests, unless indicated otherwise, all non-medicated infected chicks died within 24 hours of Pasteurella challenge. In the tests summarized in Table XII the compounds were administered by subcutaneous injection at a dosage of 30 mg/kg, 1 and 4 hours post-challenge of the chicks with P. multocida. In the test summarized in Table XIII the compounds were administered by gavage at 1 and 5 hours post-challenge of the chicks with P. multocida.

Pasteurella multocida [17] = assay: Oral (gavage) treatment of Pasteurella multocida-infected chicks; type: in vivo, one-day-old chicks
How it was run: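 Dosing either by gavage at 1 and 5 h after infection, or subcutaneously at 30 mg/kg at 1 and 4 h after infection. Birds were day-old chicks infected s.c. with 0.1 ml of avian Pasteurella multocida culture (twenty-hour tryptose broth, diluted 10^-4).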

Streptococcus Group 9960 = assay: MIC, standard agar-dilution assay, Streptococcus Group 9960; type: cell-based; conditions: GROUP9960
[18] = C203, sc, subcutaneous, read-out: ED50, Subcutaneous
[19] = C203, oral, read-out: ED50, Oral

SMILES: CCC1OC(=O)CC(O)C(C)C(OC2OC(C)C(O)C(N(C)C)C2O)C(CCOC(C)=O)CC(C)C(=O)C=CC(C)=CC1COC1OC(C)C(O)C(OC)C1OC (centres unmarked) [Compound 29, 20-DH-20-O-Acetyldesmycosin]
- MIC ([1]; Staphylococcus aureus X1.1, agar dilution, read-out: MIC): 0.5 µg/mL (≈ 0.613 µM)
- MIC ([2]; Staphylococcus aureus V41, penicillin-resistant strain, agar dilution, read-out: MIC): 0.5 µg/mL (≈ 0.613 µM)
- MIC ([3]; Staphylococcus aureus X400, methicillin-resistant strain, agar dilution, read-out: MIC): 0.5 µg/mL (≈ 0.613 µM)
- MIC [4]: 0.25 µg/mL (≈ 0.306 µM)
- MIC [5]: 0.25 µg/mL (≈ 0.306 µM)
- MIC [6]: 0.12 µg/mL (≈ 0.147 µM)
- MIC ([7]; Streptococcus pyogenes C203, agar dilution, read-out: MIC): 2 µg/mL (≈ 2.45 µM)
- MIC [8]: 0.25 µg/mL (≈ 0.306 µM)
- MIC ([9]; Streptococcus Group D X66, agar dilution, read-out: MIC): 8 µg/mL (≈ 9.8 µM)
- MIC ([10]; Haemophilus influenzae Holt, ampicillin-sensitive strain, read-out: MIC): 16 µg/mL (≈ 19.6 µM)
- MIC ([11]; Haemophilus influenzae R252, ampicillin-resistant strain, read-out: MIC): 16 µg/mL (≈ 19.6 µM)
- MIC (Staphylococcus aureus): 0.78 µg/mL (≈ 0.956 µM)
- MIC (Streptococcus bovis 80; Streptococcus bovis 80, broth-dilution microtiter, read-out: MIC): 0.78 µg/mL (≈ 0.956 µM)
- MIC ([12]; Pasteurella multocida 17E, bovine isolate, broth-dilution microtiter, read-out: MIC): 12.5 µg/mL (≈ 15.3 µM)
- MIC ([13]; Pasteurella multocida 60A, avian isolate, broth-dilution microtiter, read-out: MIC): 25 µg/mL (≈ 30.6 µM)
- MIC ([14]; Pasteurella hemolytica 22C, broth-dilution microtiter, read-out: MIC): 25 µg/mL (≈ 30.6 µM)
- MIC (Mycoplasma gallisepticum): 0.39 µg/mL (≈ 0.478 µM)
- MIC (Mycoplasma synoviae): 1.56 µg/mL (≈ 1.91 µM)
- MIC (Mycoplasma hyorhinis): 50 µg/mL (≈ 61.3 µM)
- MIC (Mycoplasma hyopneumoniae): 12.5 µg/mL (≈ 15.3 µM)
- ED50 [15, 18]: 3.4 mg/kg
- ED50 [15, 19]: 36 mg/kg
- Number of Deaths/Number Treated (Pasteurella multocida [16]; 30 mg/kg × 2, 1 and 4 hours post-challenge): 5/10
- Number of Deaths/Number tested (Pasteurella multocida [17]; 0.5 g/gal equivalent): 0/10
- Number of Deaths/Number tested (Pasteurella multocida [17]; 1.0 g/gal equivalent): 3/10

SMILES: CCC1OC(=O)CC(O)C(C)C(OC2OC(C)C(O)C(N(C)C)C2O)C(CC2SCCN2Cc2ccccc2)CC(C)C(=O)C=CC(C)=CC1COC1OC(C)C(O)C(OC)C1OC (centres unmarked) [Compound 77]
- MIC ([1]; Staphylococcus aureus, X1.1): 0.25 µg/mL (≈ 0.271 µM)
- MIC ([2]; Staphylococcus aureus, V41): 0.25 µg/mL (≈ 0.271 µM)
- MIC ([3]; Staphylococcus aureus, X400): 0.25 µg/mL (≈ 0.271 µM)
- MIC [4]: 0.25 µg/mL (≈ 0.271 µM)
- MIC [5]: 0.25 µg/mL (≈ 0.271 µM)
- MIC [6]: 0.12 µg/mL (≈ 0.13 µM)
- MIC ([7]; Streptococcus pyogenes, C203): 0.25 µg/mL (≈ 0.271 µM)
- MIC [8]: 1 µg/mL (≈ 1.09 µM)
- MIC [9]: 4 µg/mL (≈ 4.34 µM)
- MIC (Streptococcus Group 9960): 4 µg/mL (≈ 4.34 µM)
- MIC ([10]; Haemophilus influenzae): 16 µg/mL (≈ 17.4 µM)
- MIC ([11]; Haemophilus influenzae, R252): 16 µg/mL (≈ 17.4 µM)
- MIC (Staphylococcus aureus): 0.39 µg/mL (≈ 0.423 µM)
- MIC (Streptococcus bovis 80; 80): 3.12 µg/mL (≈ 3.39 µM)
- MIC ([12]; Pasteurella multocida, 17E): 12.5 µg/mL (≈ 13.6 µM)
- MIC ([13]; Pasteurella multocida, 60A): 12.5 µg/mL (≈ 13.6 µM)
- MIC ([14]; Pasteurella, 22C): 12.5 µg/mL (≈ 13.6 µM)
- MIC (Mycoplasma gallisepticum): 0.09 µg/mL (≈ 0.0977 µM)
- MIC (Mycoplasma synoviae): 0.19 µg/mL (≈ 0.206 µM)
- MIC (Mycoplasma hyorhinis): 6.25 µg/mL (≈ 6.78 µM)
- MIC (Mycoplasma hyopneumoniae): 0.19 µg/mL (≈ 0.206 µM)
- ED50 [15, 18]: > 10 mg/kg
- ED50 [15, 19]: 19 mg/kg
- Number of Deaths/Number Treated (Pasteurella multocida [16]; 30 mg/kg × 2, 8/10 and 9/10 of two groups of infected nonmedicated chicks died): 8/10
- Number of Deaths/Number tested (Pasteurella multocida [17]; 2.0 g/gal equivalent, 11/20 infected nonmedicated chicks died in this test): 4/10
